Measured values published in ChEMBL document CHEMBL3351354, “From the covalent linkage of drugs to novel inhibitors of ribonucleotide reductase: synthesis and biological evaluation of valproic esters of 3'-C-methyladenosine” (Bioorg Med Chem Lett, 2014).
The source made the active and inactive calls. The rule behind the calls is not given here.

Experiments:
[1] = target: T1, Ribonucleotide reductase (Homo sapiens) (UniProt P23921+Q7LG56); test: Inhibition of ribonucleotide reductase in human HL60 cells assessed as intracellular dNTP pools level at 50 uM after 1 hr by HPLC method; format: cell-based; settings: HL-60
[2] = target: T2, Histone deacetylase (Homo sapiens) (UniProt Q13547+O15379+Q9UBN7+Q92769+Q9UQL6+Q8WUI4+Q9BY41+Q96DB2+P56524+Q9UKV0+Q969S8); test: Inhibition of HDAC in human HL60 cells assessed as increase in histone H3 acetylation at 10 and 100 uM after 24 hrs by Western blotting method; format: cell-based; settings: HL-60
[3] = Half life in pH 7.4 isotonic sodium phosphate buffer at 37 degC by HPLC-DAD-ESI-MS method; format: physicochemical
HL-60 [4] = test: Induction of cell cycle arrest in human HL60 cells assessed as accumulation at S phase at 50 uM after 24 hrs by propidium iodide staining based flow cytometry (reference value: 54%); format: functional
[5] = Growth inhibition of human HL60 cells after 48 hrs by MTT assay; format: functional, cell-based, HL-60; settings: Homo sapiens, HL-60, 48 h; read-out: IC50
[6] = target: T1, Ribonucleotide reductase (Homo sapiens); test: Inhibition of human recombinant ribonucleotide reductase at 0.1 mM; format: protein-complex assay
HeLa = test: Growth inhibition of human HeLa cells after 48 hrs by MTT assay; format: functional, cell-based; settings: Homo sapiens, HeLa, 48 h; read-out: IC50
HT-29 = test: Growth inhibition of human HT-29 cells after 48 hrs by MTT assay; format: functional, cell-based; settings: Homo sapiens, HT-29, 48 h; read-out: IC50
HL-60 [7] = test: Induction of cell cycle arrest in human HL60 cells assessed as accumulation at G1 phase at 50 uM after 24 hrs by propidium iodide staining based flow cytometry (reference value: 32%); format: functional
[8] = Growth inhibition of human Caco2 cells after 48 hrs by MTT assay; format: functional, cell-based, Caco-2; settings: Homo sapiens, Caco-2, 48 h; read-out: IC50
HuT78 = test: Growth inhibition of human HUT78 cells after 48 hrs by MTT assay; format: functional, cell-based; settings: Homo sapiens, HuT78, 48 h; read-out: IC50
K562 = test: Growth inhibition of human K562 cells after 48 hrs by MTT assay; format: functional, cell-based; settings: Homo sapiens, K562, 48 h; read-out: IC50
[9] = target: T2, Histone deacetylase (Homo sapiens); test: Inhibition of HDAC in human HL60 cells assessed as increase in p21 expression at 50 uM after 24 hrs by flow cytometry; format: cell-based; settings: HL-60
MCF7 = test: Growth inhibition of human MCF7 cells after 48 hrs by MTT assay; format: functional, cell-based; settings: Homo sapiens, MCF7, 48 h; read-out: IC50
HL-60 [10] = test: Induction of ROS generation in human HL60 cells at 2 and 5 mM after 24 hrs by DCFH-DA staining based flow cytometry; format: functional, cell-based
HL-60 [11] = test: Induction of apoptosis in human HL60 cells after 24 to 48 hrs by acridine orange and ethidium bromide staining based fluorescence microscopy; format: functional, cell-based
HL-60 [12] = test: Induction of cell cycle arrest in human HL60 cells assessed as accumulation at G2M phase at 50 uM after 24 hrs by propidium iodide staining based flow cytometry (reference value: 12%); format: functional
[13] = Half life in RPMI-1640 medium containing 10% fetal calf serum assessed as compound disappearance by HPLC-DAD-ESI-MS method; format: ADME, Bos taurus; settings: cattle
[14] = target: T1, Ribonucleotide reductase (Homo sapiens); test: Inhibition of human recombinant ribonucleotide reductase at 1.2 mM; format: protein-complex assay
HL-60 [15] = test: Induction of cell cycle arrest in human HL60 cells assessed as accumulation at S phase at 100 uM after 24 hrs by propidium iodide staining based flow cytometry (reference value: 54%); format: functional
[16] = target: T1, Ribonucleotide reductase (Homo sapiens); test: Inhibition of human recombinant ribonucleotide reductase at 1.2 mM in presence of dGTP; format: protein-complex assay
[17] = target: T1, Ribonucleotide reductase (Homo sapiens); test: Inhibition of ribonucleotide reductase in human HL60 cells assessed as intracellular dNTP pools level at 0.3 mM after 1 hr by HPLC method; format: cell-based; settings: HL-60
HL-60 [18] = test: Induction of cell cycle arrest in human HL60 cells assessed as accumulation at G1 phase at 100 uM after 24 hrs by propidium iodide staining based flow cytometry (reference value: 32%); format: functional
[19] = target: T1, Ribonucleotide reductase (Homo sapiens); test: Inhibition of human recombinant ribonucleotide reductase at 1.2 mM in presence of 3 mM ATP; format: protein-complex assay
Ribonucleotide reductase = target: T3, Ribonucleotide reductase (Homo sapiens, UniProt P23921+Q7LG56); test: Competitive inhibition of human recombinant ribonucleotide reductase in presence of varying levels of ATP by Dixon plot; format: protein-complex assay
T3 sequence (P23921 whole entry): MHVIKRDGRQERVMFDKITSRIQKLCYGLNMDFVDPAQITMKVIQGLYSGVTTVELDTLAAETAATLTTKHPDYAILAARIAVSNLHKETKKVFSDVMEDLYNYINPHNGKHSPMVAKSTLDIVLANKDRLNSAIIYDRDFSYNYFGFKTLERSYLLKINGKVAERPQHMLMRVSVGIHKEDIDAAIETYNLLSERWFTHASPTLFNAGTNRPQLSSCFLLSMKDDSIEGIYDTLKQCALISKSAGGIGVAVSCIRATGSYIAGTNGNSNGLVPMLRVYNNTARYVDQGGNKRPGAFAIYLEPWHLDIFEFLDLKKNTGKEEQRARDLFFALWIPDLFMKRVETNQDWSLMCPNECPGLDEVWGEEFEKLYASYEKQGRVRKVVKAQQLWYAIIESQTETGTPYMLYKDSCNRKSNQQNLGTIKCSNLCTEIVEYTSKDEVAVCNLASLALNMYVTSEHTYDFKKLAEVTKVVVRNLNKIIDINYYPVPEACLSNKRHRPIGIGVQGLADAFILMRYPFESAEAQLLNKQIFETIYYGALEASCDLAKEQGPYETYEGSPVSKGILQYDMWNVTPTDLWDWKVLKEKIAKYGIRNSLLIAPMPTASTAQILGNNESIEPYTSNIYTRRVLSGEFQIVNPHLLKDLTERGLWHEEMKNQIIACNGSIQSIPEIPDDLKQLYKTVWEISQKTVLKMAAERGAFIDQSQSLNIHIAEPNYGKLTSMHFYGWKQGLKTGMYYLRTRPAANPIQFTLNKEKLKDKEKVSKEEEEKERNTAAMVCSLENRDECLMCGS
T3 sequence (Q7LG56 whole entry): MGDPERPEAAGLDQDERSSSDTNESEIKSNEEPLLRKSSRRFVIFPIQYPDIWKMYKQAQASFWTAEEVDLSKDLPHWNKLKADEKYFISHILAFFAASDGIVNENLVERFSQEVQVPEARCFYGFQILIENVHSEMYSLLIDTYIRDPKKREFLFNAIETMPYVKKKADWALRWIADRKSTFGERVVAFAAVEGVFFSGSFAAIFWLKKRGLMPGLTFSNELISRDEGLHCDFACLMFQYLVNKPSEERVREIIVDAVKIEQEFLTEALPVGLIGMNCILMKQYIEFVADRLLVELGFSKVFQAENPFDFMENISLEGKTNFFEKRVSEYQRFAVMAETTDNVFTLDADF

HL-60 [20] = test: Induction of cell cycle arrest in human HL60 cells assessed as accumulation at G2M phase at 100 uM after 24 hrs by propidium iodide staining based flow cytometry (reference value: 12%); format: functional
[21] = target: T1, Ribonucleotide reductase (Homo sapiens); test: Inhibition of human recombinant ribonucleotide reductase at 1.2 mM in presence of 1 mM ATP; format: protein-complex assay
HL-60 [22] = test: Induction of cell cycle arrest in human HL60 cells assessed as accumulation at G1 phase at 0.5 mM after 24 hrs by propidium iodide staining based flow cytometry (reference value: 32%); format: functional
HL-60 [23] = test: Induction of cell cycle arrest in human HL60 cells assessed as accumulation at G2M phase at 0.5 mM after 24 hrs by propidium iodide staining based flow cytometry (reference value: 12%); format: functional
HL-60 [24] = test: Induction of cell cycle arrest in human HL60 cells assessed as accumulation at S phase at 0.5 mM after 24 hrs by propidium iodide staining based flow cytometry (reference value: 54%); format: functional

CCCC(CCC)C(=O)OC[C@H]1O[C@@H](n2cnc3c(N)ncnc32)[C@H](OC(=O)C(CCC)CCC)[C@]1(C)O
inhibition [1]: inactive
inhibition [2]: inactive
half-life [3]: > 72 h
Activity (HL-60 [4]): 29%
IC50 [5]: 16.3 µM
inhibition [6]: inactive
IC50 (HeLa): 54.4 µM
IC50 (HT-29): 54.6 µM
Activity (HL-60 [7]): 71%
IC50 [8]: 55.1 µM
IC50 (HuT78): 30 µM
IC50 (K562): 51.9 µM
inhibition [9]: inactive
IC50 (MCF7): 57.8 µM
Activity (HL-60 [10]): inactive
AC50 (HL-60 [11]; Homo sapiens, HL-60, read-out: AC50): 140 µM
Activity (HL-60 [12]): 0%
half-life [13]: > 72 h

CCCC(CCC)C(=O)OC[C@H]1O[C@@H](n2cnc3c(N)ncnc32)[C@H](O)[C@]1(C)O
inhibition [14]: Active
inhibition [2]: inactive
half-life [3]: > 72 h
IC50 [5]: 67.1 µM
Activity (HL-60 [15]): 44%
IC50 (HeLa): > 200 µM
inhibition [16]: inactive
IC50 (HT-29): > 200 µM
IC50 [8]: > 200 µM
inhibition [17]: Active
IC50 (HuT78): 142 µM
IC50 (K562): 200 µM
IC50 (MCF7): > 200 µM
AC50 (HL-60 [11]; hl-60): Not Active
half-life [13]: > 72 h
Activity (HL-60 [18]): 42%
inhibition [19]: inactive
Ki (Ribonucleotide reductase): 400 µM
Activity (HL-60 [20]): 14%
inhibition [21]: Active

NC(=O)NO [HYDROXYUREA]
Activity (HL-60 [22]): 86%
Activity (HL-60 [23]): 7%
Activity (HL-60 [24]): 7%
